Experimental data from patent US12084411B2, “Hinokitiol analogues, methods of preparing and pharmaceutical compositions thereof” (The Board of Trustees of the University of Illinois, priority 2018, dated 2024).

Key:
wild-type yeast (WT) = test: Toxicity to wild type yeast (structure-activity study, FIG. 25)
Description: Growth rescue in yeast was performed similar to previously reported (20) using 10 μM hinokitiol in low iron SD liquid media containing 10 μM FeCl3 in a 96-well plate unless otherwise noted. Wild type and fet3Δftr1Δ controls treated with vehicle (DMSO) were performed under identical conditions using the same low iron SD media containing 10 μM FeCl3 in the absence of hinokitiol. Yeast were grown overnight in YPD media and diluted at an OD600 of 0.1 in SD media, diluted 10-fold, and incubated at 30° C. with continuous shaking (200 rpm). The OD600 was obtained 24-48 hours after inoculation unless otherwise noted.
Small molecule dose-response (FIG. 1F) with hinokitiol and C2-deoxy hinokitiol (C2deOHino, see synthesis below) was determined by addition of the small molecule (40X stock solution in DMSO) to give the indicated final concentrations.

DMT1-deficient MEL cells = test: Live cell fluorescence imaging and flow cytometry of compartmentalized iron in MEL cells; assay type: cell-based, mouse; details: for endosomal oxyburst green, cytosolic calcein green and mitochondrial RPA fluorescence: 1 μM
Description: To visualize cytosolic and mitochondrial iron, confocal imaging of calcein green and RPA fluorescence was performed, respectively. MEL cells were induced for differentiation as described above. […] The cells were incubated for an additional 2 hours, and then were centrifuged and rinsed with PBS. […] The cells were then incubated at 37° C. for 15 minutes. […] The cells were then imaged within 10 minutes on a LSM710 microscope. Relative calcein green and RPA fluorescence per cell was determined by ImageJ analysis using >100 cells per experiment. […] MEL cells were induced for differentiation as described above. […] The cells were incubated for an additional 2 hours, and then were centrifuged and rinsed with PBS. The cells were then re-suspended in DMEM-HEPES buffer, and H2O2 (50 mM final concentration) was added. The cells were incubated at room temperature, and the oxyburst green fluorescence was then determined 10 minutes after addition of H2O2 on a LSM710 microscope. Relative oxyburst green fluorescence per cell was determined by ImageJ analysis using >100 cells per experiment. […] Median fluorescence was then normalized to shDMT1 for each dye. […] Median fluorescence was then normalized to shDMT1 for each dye.

[1] = tested on: DMT1-deficient Belgrade (b/b) rats; test: 59Fe gut absorption in Belgrade rats; assay type: in vivo; details: 1.5 mg/kg, oral gavage
Description: ^59Fe gastrointestinal absorption of iron in 3-5-month-old b/b rats was characterized similar to the procedure described above in the presence of either 6 mM hinokitiol or 6 mM C2deOHino. To compare with the rate of normal iron uptake, age-matched sibling control (+/+ or +/b) Belgrade rats were tested by the same procedure except that ^59Fe was administered without small molecule. Blood (50 μL) was taken from the tail vein at 15, 30, 60, 120, 180, 240, and 360 minutes post administration. Radioactivity was quantified by gamma counting and calculated as the percentage of gavaged dose (±SEM). Animals were humanely euthanized at 6 hours.

DMT1-deficient zebrafish = details: two days; for hemoglobinization (GFP-positive erythroids): 1 μM in water from 24 hpf; for number of fish with high hemoglobin levels (o-dianisidine): heterozygous cross of +/cdy fish
Description: The morpholinos (MOs) were purchased from GeneTools, LLC (Philomath, OR). The sequences of the MO used were as follows: dmt1 MO: 5′-[…]-3′; mfrnl MO: 5′-[…]-3′. Zebrafish embryos at the 1-cell stage were injected with MOs as previously described (72, 78). o-dianisidine staining for hemoglobinized cells in embryos was as previously described (79). Quantification by flow cytometry using fluorescently labeled erythrocytes from the transgenic Tg(globinLCR:eGFP) line (50) was performed as previously described (72, 75). Semi-quantitative RT-PCR of dmt1 mRNA in morphants was performed using custom designed probes as previously described (80). The sequences of the dmt1 primers are as follows: 5′-[…]-3′ (Fwd); 5′-[…]-3′ (Rev). The sequences of the control actb primers were as follows: 5′-[…]-3′ (Fwd); 5′-[…]-3′ (Rev).
Either mutant or morphant embryos were allowed to develop to >24 hours post fertilization (hpf), then dechorionated with pronase as previously described (81). The dechorionated embryos or morphants were then incubated in the presence of 1 μM hinokitiol (or vehicle) and 10 μM iron (III) citrate for an additional forty-eight hours. Vehicle treated embryos were exposed to […]. C2deOHino (1 μM) with iron (III) citrate (10 μM) was used as a negative control. Control and either mutant or morphant embryos at ˜72 hpf were either (a) directly stained by o-dianisidine (79) or (b) mechanically homogenized as previously described for flow cytometry (75, 78).

[2] = DMT1-deficient morphant zebrafish

SMILES	toxicity to wild type yeast (wild-type yeast (WT))	endosomal oxyburst green, cytosolic calcein green and mitochondrial RPA fluorescence (DMT1-deficient MEL cells)	reduction in 59Fe absorption relative to sibling controls (+/+ or +/b) [1]	hemoglobinization (GFP-positive erythroids) (DMT1-deficient zebrafish; [2])	number of fish with high hemoglobin levels (o-dianisidine) (DMT1-deficient zebrafish)	decrease of oxyburst green fluorescence (DMT1-deficient MEL cells; hinokitiol 1 μM)	gut iron absorption ([1]; after one hour)	observable toxicity (DMT1-deficient zebrafish; DMT1-deficient morphant zebrafish, 1 μM)
CC(C)c1cccc(=O)cc1 [C2deOHino, C2-deoxy hinokitiol]	no biological activity	no effect	2 fold	no effect	no effect			
CC(C)c1cccc(=O)c(O)c1 [hinokitiol]	kills wild-type yeast (WT) only at high concentrations	decreases endosomal oxyburst green fluorescence and quenches calcein green and RPA fluorescence		promoted hemoglobinization	increased the number of fish exhibiting high hemoglobin levels	2.1 fold	increased ^55Fe absorption back to control levels	without observable toxicity
